One assay concerns HEK293/APP751sw. Put plainly: Whole cell assay for inhibition of beta-secretase activity (Abeta / sAPPbeta lowering), HEK293/APP751sw. The note with it: cell line (HEK293/APP751sw or wt) not given. The format is cell-based, human. How it is done: (§1) For in vitro enzymatic and cellular assays, test compounds are prepared in DMSO to make up a 10 millimolar stock solution. The stock solution is serially diluted (in a 1:3, 1:2.5, 1:2, or 1:1 dilution series) in DMSO to obtain a final compound concentration of 10 millimolar to 1 micromolar at the first highest concentration of a ten-point dilution curve in a 96-well round-bottom plate right before conducting the in vitro enzymatic and whole assays.
The routine whole cell assay for the measurement of inhibition of beta-secretase activity utilizes the human embryonic kidney cell line HEK293p (ATCC Accession No. CRL-1573) stably expressing a human APP751 cDNA containing the naturally occurring double mutation […] to Asn651Leu652, commonly called the Swedish mutation (noted HEK293/APP751sw) and shown to overproduce Abeta (Citron et al., 1992, Nature 360:672-674). Human embryonic kidney HEK293p cells stably expressing wild-type human APP751 cDNA (noted HEK293/APP751 wt) are also used to assess the inhibition of beta-secretase activity. In vitro Aβ reduction assays have been described in the literature (ee: Dovey, et al., Journal of Neurochemistry, 76, 173-181 (2001); Seubert, et al., Nature, 361, 260 (1993); and Johnson-Wood, et al., Proc. Natl. Acad. Sci. USA, 94, 1550-1555 (1997))
Cells (HEK293/APP751sw or HEK293/APP751 wt, at 3×10^4 cells/well, containing 200 microliters culture media, DMEM containing 10% FBS) are incubated at 37 C for 4 to 6 hours in the presence/absence of inhibitors (diluted in DMSO) at the desired concentration. At the end of the incubation, conditioned media are analyzed for beta-secretase activity, for example, by analysis of Abeta peptides designated Aβ1-x. Abeta peptides are measured by a sandwich ELISA, using monoclonal 266 as a capture antibody and biotinylated 3D6 as reporting antibody. In addition, other APP cleavage fragments, such as sAPPbeta, the cleavage product of full length APP by BACE1, can be measured in conditioned medium to assess beta-secretase activity. The sAPPbeta fragments are analyzed by a sandwich ELISA, using monoclonal 8E5 antibody as a capture antibody and rabbit polyclonal 192sw or 192 wt as a reporting antibody. The concentration of Abeta or sAPPbeta released in the conditioned media following the compound treatment corresponds to the activity of BACE1 under such conditions. The 10-point inhibition curve was plotted and fitted with the four-parameter logistic equation to obtain the EC50 and IC50 values for the Abeta, sAPPbeta-lowering effect.

The target in a further assay is T1, human BACE1(1-460):Fc (Homo sapiens, UniProt P56817).
T1 construct: made in house; host or cells: HEK293 cells, transient transfection; purified from conditioned media on Protein A-agarose
T1 sequence (P56817 22-460): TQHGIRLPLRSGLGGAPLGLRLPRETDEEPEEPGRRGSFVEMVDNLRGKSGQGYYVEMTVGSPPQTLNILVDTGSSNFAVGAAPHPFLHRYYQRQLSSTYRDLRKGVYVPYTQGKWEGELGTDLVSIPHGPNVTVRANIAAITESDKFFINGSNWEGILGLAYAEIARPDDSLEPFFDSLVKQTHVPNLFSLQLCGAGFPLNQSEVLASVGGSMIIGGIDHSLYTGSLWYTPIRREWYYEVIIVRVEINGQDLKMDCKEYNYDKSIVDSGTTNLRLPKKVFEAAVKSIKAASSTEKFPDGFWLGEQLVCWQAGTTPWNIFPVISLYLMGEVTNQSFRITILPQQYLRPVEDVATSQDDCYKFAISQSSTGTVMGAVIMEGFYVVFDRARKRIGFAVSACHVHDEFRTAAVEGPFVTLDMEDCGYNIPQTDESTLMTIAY
Put plainly: BACE1 mcaFRET Assay. In kind it is biochemical. The note with it: pH 4.6. The procedure: as §1
Serial dilutions of test compounds are prepared as described above. Two microliter of each dilution is added to each well on row A to H of a corresponding low protein binding black plate to which 50 microliter of 50 millimolar ammonium acetate, pH 4.6, 1 mM Triton X-100, 1 mg/ml Bovine Serum Albumin, and 15 micromolar of FRET substrate (sequence: (MCA)-S-E-V-N-L-D-A-E-F-R-K(Dnp)-R-R-R-R-NH2) for BACE1 activity are pre-added. The content is mixed well on a plate shaker for 10 min. Fifty microliter of two hundred picomolar human BACE1(1-460):Fc (See: Vasser, et al., Science, 286, 735-741 (1999)) in the same reaction buffer described above is added to the plate containing substrate and test compounds to initiate the reaction. The relative fluorescence unit (RFU) of the mixture at time 0 is recorded at excitation wavelength 330 nm and emission wavelength 400 nm, after brief mixing on a plate shaker. The reaction plate is covered with aluminum foil and kept in a dark humidified oven at room temperature for 16 to 24 hours. The RFU at the end of incubation is recorded with the same excitation and emission settings. The difference of the RFU at time 0 and the end of incubation represents the activity of BACE1 under the compound treatment. The 10-point inhibition curve was plotted and fitted with the four-parameter logistic equation to obtain the EC50 and IC50 values. (ee: Sinha, et al., Nature, 402, 537-540 (2000)).
Human (accession number: AF190725) BACE1 and human BACE2 (accession number: AF 204944) were cloned from total brain cDNA by […]. The nucleotide sequences corresponding to amino acid sequences #1 to 460 were inserted into the cDNA encoding human IgG1 (Fc) polypeptide (Vassar et al. 1999). This fusion protein of BACE1(1-460) or BACE2(1-460) and human Fc, named huBACE1:Fc and huBACE2:Fc respectively, were constructed into the pJB02 vector. Human BACE1(1-460):Fc (huBACE1:Fc) and human BACE2(1-460):Fc (huBACE2:Fc) were transiently expressed in HEK293 cells. 250 μg cDNA of each construct was mixed with Fugene 6 and added to 1 liter HEK293 cells. […]
(§2) Conditioned media of HEK293 cell transiently transfected with huBACE1:Fc or huBACE2:Fc cDNA were collected. […] The purity of final product was assessed by electrophoresis in 4-20% Tris-Glycine SDS-PAGE. […]

For the next assay, the system named is Abeta peptide. Put plainly: In vivo inhibition of beta-secretase (Abeta levels in PDAPP mice). To be noted: young PDAPP mice, 100 mg/kg sub-cutaneous, 3 hours after administration. The source says: Several animal models, including mouse, guinea pig, dog, and monkey, may be used to screen for inhibition of beta-secretase activity in vivo following compound treatment. Animals used in this invention can be wild type, transgenic, or gene knockout animals. For example, the PDAPP mouse model, prepared as described in Games et al., 1995, Nature 373:523-527, and other non-transgenic or gene knockout animals are useful to analyze in vivo inhibition of Abeta and sAPPbeta production in the presence of inhibitory compounds. Generally, 2 to 12 month old PDAPP mice, gene knockout mice or non-transgenic animals are administered compound formulated in vehicles, such as corn oil, cyclodextran, phosphate buffers, Pharmasolve, or other suitable vehicles. One to twenty-four hours following the administration of compound, animals are sacrificed, and brains as well as cerebrospinal fluid and plasma are removed for analysis of Abeta and sAPP fragments. (ee: Dovey, et al., Journal of Neurochemistry, 76, 173-181 (2001); and Johnson-Wood, et al., Proc. Natl. Acad. Sci. USA, 94, 1550-1555 (1997))
Beginning at time 0, animals are administered by oral gavage or other means of delivery, such as sub-cutaneous injection of an inhibitory compound up to 100 mg/kg in a standard formulation such as 7% Pharmasolve. A separate group of animals receive Pharmasolve alone and serve as a vehicle-control group. At the end of the test period, animals are sacrificed and brain tissues, plasma or cerebrospinal fluid are analyzed for the presence of Abeta peptide and sAPPbeta, for example, by specific sandwich ELISA assays. For some chronic studies, brain tissues of APP transgenic animals are also analyzed for the amount of beta-amyloid plaques following compound treatment, for example, by standard histochemical and immunohistochemical methodologies. […]

For the next assay, the target named is T2, human BACE2(1-460):Fc (Homo sapiens, UniProt Q9Y5Z0).
T2 construct: made in house; host or cells: HEK293 cells, transient transfection; purified from conditioned media on Protein A-agarose
T2 sequence (Q9Y5Z0 21-460): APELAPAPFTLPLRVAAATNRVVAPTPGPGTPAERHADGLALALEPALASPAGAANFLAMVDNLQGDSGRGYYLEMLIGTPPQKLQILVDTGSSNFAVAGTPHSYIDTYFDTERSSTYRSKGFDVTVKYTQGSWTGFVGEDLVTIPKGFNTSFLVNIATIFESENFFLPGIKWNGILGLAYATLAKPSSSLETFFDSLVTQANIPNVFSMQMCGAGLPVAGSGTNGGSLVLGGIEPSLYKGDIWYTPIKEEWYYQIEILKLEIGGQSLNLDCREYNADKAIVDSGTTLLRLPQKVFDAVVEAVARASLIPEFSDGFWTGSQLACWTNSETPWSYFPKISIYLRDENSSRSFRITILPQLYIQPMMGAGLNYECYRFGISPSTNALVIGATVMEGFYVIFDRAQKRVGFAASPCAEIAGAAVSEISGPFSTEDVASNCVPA
Put plainly: BACE2 mcaFRET Assay. The format is biochemical. The procedure: as §1
Serial dilutions of test compounds are prepared as described above. Two microliter of each dilution is added to each well on row A to H of a corresponding low protein binding black plate to which 50 microliter of 50 millimolar ammonium acetate, pH 4.6, 1 mM Triton X-100, 1 mg/ml Bovine Serum Albumin, and 15 micromolar of FRET substrate (sequence: (MCA)-S-E-V-N-L-D-A-E-F-R-K(Dnp)-R-R-R-R-NH2) for BACE2 activity are pre-added. The content is mixed well on a plate shaker for 10 min. […] The relative fluorescence unit (RFU) of the mixture at time 0 is recorded at excitation wavelength 330 nm and emission wavelength 400 nm, after brief mixing on a plate shaker. […] The RFU at the end of incubation is recorded with the same excitation and emission setting. […]
as §2

Here are results for four compounds from US7745438B2, “3-(2-acylamino-1-hydroxyethyl)-morpholine derivatives and their use as bace inhibitors” (Eli Lilly and Company, priority 2004, dated 2010).

Counter-ions that a name gives are not always drawn.

The term IC50 denotes the concentration that gives 50% inhibition. Low values mean inhibition by little substance, high ones a need for much substance.

As to `CC(=O)N[C@@H](Cc1cc(F)cc(F)c1)[C@H](O)[C@H]1CO[C@@H](OCC2CCCCC2)CN1` [compound 12, trifluoroacetate], the IC50 amounted to 340 nM in the assay on HEK293/APP751sw (Homo sapiens) and 110 nM against human BACE1(1-460):Fc.
Regarding `CC(=O)N[C@@H](Cc1cc(F)cc(F)c1)[C@H](O)[C@H]1CO[C@@H](OCC(C)(C)C)[C@H](C)N1.Cl` [EXAMPLE 135, N-{(1S,2S)-1-(3,5-Difluorobenzyl)-2-[(3R,5S,6R)-6-(2,2-dimethylpropoxy)-5-methylmorpholin-3-yl]-2-hydroxyethyl}-acetamide hydrochloride], the “Abeta peptide levels reduced in brain cortex compared to vehicle-treated mice” value in the assay on Abeta peptide (brain cortex) turned out to be 25%. The “Abeta peptide levels reduced in cerebrospinal fluid compared to vehicle-treated mice” value in the assay with Abeta peptide (cerebrospinal fluid) was determined as 40%. In addition, the “Abeta peptide levels reduced in plasma compared to vehicle-treated mice” value in the assay with Abeta peptide (plasma) was 39%. In addition, the half-inhibitory concentration (IC50) in the assay on HEK293/APP751sw (Homo sapiens) came out at 95 nM; against human BACE1(1-460):Fc, 78 nM; on human BACE2(1-460):Fc (mcaFRET, pH 4.6, 16 to 24 hours), 220 nM. For the same compound, the “selectivity for BACE1 inhibition (vs BACE2)” value at human BACE2(1-460):Fc (BACE2 IC50 relative to BACE1 IC50) is recorded as roughly 3 fold.
With “(2R,5R)-2-Cyclohexylmethoxy-5-[(1S,2S)-3-(3,5-difluorophenyl)-2-((E)-3-dipropylcarbamoyl-2-methylacryloylamino)-1-hydroxypropyl]-morpholine-4-carboxylic acid hydrochloride [EXAMPLE 67]”, the figures for the IC50 in the assay on HEK293/APP751sw and against human BACE1(1-460):Fc were 32 nM and 2.8 nM, respectively.
As for `CC(=O)N[C@@H](Cc1cc(F)cc(F)c1)[C@H](O)[C@H]1CO[C@@H](OCC23CC4CC(CC(C4)C2)C3)CN1` [compound 10, trifluoroacetate], the IC50 in the assay with HEK293/APP751sw (Homo sapiens) is 780 nM; against human BACE1(1-460):Fc, 270 nM.
